Laboratory results from patent publication US8618101B2, “N-((1R,2S,5R)-5-(tert-butylamino)-2-((S)-3-(7-tert-butylpyrazolo[1,5-a][1,3,5]triazin-4-ylamino)-2-oxopyrrolidin-1-yl)cyclohexyl)acetamide, a dual modulator of chemokine receptor activity, crystalline forms and processes” (Bristol-Myers Squibb Company, priority 2009, dated 2013).
Read-outs that look alike come from different tables or passages of the source.

Tests used:
[1] = biological target: T1, human cardiac sodium channel, SCN5A (Homo sapiens, UniProt Q14524); assay: Sodium channel patch clamp; format: cell-based; conditions: read-out: Na+ channel patch clamp (% Inhib.)
T1 construct: expressed in transfected cells; host or cells: HEK-293
T1 sequence (Q14524 whole entry): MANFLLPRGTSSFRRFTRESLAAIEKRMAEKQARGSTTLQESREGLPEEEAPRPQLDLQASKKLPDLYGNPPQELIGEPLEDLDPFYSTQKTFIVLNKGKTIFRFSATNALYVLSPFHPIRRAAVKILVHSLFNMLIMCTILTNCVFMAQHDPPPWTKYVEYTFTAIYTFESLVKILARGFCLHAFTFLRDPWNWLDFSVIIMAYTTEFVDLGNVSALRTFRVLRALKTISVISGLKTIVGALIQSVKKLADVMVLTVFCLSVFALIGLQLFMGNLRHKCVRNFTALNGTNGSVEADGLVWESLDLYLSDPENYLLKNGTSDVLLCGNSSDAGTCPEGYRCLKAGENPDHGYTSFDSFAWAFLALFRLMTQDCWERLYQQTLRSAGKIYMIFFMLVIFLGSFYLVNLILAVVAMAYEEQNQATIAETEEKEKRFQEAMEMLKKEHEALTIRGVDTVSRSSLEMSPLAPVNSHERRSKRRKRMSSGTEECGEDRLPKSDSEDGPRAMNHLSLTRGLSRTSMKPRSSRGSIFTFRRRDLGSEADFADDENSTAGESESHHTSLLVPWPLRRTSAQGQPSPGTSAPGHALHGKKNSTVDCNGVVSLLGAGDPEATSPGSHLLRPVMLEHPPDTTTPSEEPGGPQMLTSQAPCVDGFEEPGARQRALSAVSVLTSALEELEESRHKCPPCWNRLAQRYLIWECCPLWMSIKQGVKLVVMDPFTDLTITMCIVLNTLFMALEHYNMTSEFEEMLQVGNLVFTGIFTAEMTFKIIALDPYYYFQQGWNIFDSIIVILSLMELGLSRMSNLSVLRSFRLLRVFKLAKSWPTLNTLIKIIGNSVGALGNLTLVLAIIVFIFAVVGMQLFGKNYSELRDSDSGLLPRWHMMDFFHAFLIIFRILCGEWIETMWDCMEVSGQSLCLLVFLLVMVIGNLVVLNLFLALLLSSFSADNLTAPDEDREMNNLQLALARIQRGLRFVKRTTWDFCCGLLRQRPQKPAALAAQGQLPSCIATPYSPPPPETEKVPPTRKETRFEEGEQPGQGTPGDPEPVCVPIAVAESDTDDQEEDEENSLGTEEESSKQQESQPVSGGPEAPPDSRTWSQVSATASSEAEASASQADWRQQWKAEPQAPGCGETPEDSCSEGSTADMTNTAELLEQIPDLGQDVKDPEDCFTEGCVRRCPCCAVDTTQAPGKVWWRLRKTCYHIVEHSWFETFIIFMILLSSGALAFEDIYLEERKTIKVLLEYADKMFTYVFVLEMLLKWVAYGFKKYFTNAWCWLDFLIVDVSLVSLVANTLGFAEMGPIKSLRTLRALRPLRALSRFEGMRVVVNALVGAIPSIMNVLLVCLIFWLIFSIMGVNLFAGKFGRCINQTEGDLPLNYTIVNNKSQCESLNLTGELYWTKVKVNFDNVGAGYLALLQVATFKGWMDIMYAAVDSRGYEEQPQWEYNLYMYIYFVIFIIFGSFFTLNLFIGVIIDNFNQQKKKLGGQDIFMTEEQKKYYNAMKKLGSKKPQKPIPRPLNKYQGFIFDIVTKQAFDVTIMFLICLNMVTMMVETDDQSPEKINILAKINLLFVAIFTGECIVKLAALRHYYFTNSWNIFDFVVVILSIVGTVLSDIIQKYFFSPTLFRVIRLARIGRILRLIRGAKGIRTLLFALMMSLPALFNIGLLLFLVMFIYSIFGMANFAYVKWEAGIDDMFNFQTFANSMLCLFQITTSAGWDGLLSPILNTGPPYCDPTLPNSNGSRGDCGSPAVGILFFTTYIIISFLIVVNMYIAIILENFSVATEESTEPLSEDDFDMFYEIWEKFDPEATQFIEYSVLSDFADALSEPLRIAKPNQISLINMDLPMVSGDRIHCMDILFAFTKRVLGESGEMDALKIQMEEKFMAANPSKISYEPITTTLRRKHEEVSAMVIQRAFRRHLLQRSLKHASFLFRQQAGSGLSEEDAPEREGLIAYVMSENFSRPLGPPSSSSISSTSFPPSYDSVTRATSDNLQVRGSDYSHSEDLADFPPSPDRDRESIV
Method: Whole-cell patch-clamp was used to directly measure inward sodium currents in HEK-293 cells expressing the human cardiac sodium channel, SCN5A. The compound was tested at a protein-free aqueous buffer. For determining steady state inhibition, sodium currents were elicited every 5 seconds using the following voltage protocol: cells were held at a potential of −90 mV and stepped to −20 mV for 60 ms. Effects were calculated by measuring inhibition of peak current during the test pulse to −20 mV. Rate-dependence of inhibition was assessed by stimulation at frequencies of 1 Hz and 4 Hz.

[2] = Plasma levels of Example 1 and mouse MCP-1 in the 48-hour TG peritonitis model; format: in vivo; conditions: mouse, read-out: Concentration of free Example 1 in plasma (nM) (fold IC90 CCR-2 binding)
Method: (§1) For the 48-hour TG peritonitis study, Example 1 was dosed twice a day with the first dose one hour prior to TG injection. Total peritoneal cell counts were obtained on isolated cells by a cell counter. Cytospins were performed to determine differential leukocyte counts. The cells were stained for 3 minutes with Wright-Giemsa Stain (Sigma-Aldrich) and then rinsed with deionized water for 5 minutes. Differential counts were calculated based on a total of 200 cells counted per sample. Blood was also collected from the retro-orbital sinus at the end of each study in EDTA for determination of drug concentration.
The caveat for this estimation is that only CCR-2 and its major ligand MCP-1 were taken into consideration. The receptor occupancy of a ligand in the presence of a competitive inhibitor is defined by the Gaddum equation: […]

human CCR-2 = biological target: T2, human CCR-2 (Homo sapiens, UniProt P41597); assay: 125I-mouse MCP-1 binding to human CCR-2-expressing cells (hPBMCs); design: hPBMCs were isolated from human leukopak; host or cells: human peripheral blood mononuclear cells; conditions: read-out: in vitro IC50 for inhibition of 125I-mouse MCP-1 binding to human CCR-2-expressing cells (hPBMCs)
T2 sequence (P41597 1-360 isoform P41597-2): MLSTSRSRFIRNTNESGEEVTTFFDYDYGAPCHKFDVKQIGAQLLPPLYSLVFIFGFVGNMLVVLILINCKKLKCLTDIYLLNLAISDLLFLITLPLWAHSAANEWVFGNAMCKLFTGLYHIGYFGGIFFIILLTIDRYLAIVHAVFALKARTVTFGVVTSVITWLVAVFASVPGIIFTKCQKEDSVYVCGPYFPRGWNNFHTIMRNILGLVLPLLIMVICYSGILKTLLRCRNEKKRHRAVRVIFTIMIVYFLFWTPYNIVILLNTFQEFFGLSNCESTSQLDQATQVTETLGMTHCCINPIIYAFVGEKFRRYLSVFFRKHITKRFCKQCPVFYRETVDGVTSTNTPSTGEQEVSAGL

CCR-2 = CCR-2 (Homo sapiens, UniProt P41597); assay: CCR-2 whole blood integrin (CD11b) upregulation; format: cell-based
CCR-2, sequence (P41597 whole entry): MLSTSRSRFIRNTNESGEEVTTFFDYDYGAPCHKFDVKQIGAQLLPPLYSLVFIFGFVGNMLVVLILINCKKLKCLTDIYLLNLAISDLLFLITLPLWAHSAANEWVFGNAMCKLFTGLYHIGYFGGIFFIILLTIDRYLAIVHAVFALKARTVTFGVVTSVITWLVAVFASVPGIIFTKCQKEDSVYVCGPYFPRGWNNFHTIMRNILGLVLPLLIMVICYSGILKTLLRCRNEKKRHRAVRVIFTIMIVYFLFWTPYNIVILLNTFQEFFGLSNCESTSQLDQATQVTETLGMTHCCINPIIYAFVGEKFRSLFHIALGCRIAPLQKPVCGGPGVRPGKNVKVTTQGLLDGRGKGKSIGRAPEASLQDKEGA
Method: A CCR-2-dependent CD11b upregulation assay was established with human whole blood. Whole blood (100 μl) was pre-incubated with a concentration range of Example 1 at 37° C. for 10 minutes. […] The reactions were incubated for 30 minutes at 37° C. […] The samples were then incubated for 30 minutes on ice in the dark. […] Data acquisition and analysis were performed using CellQuestPro software. A sequential gating strategy was used to analyze the CD14^high CD11b^+ monocyte population.

CCR-5 = biological target: T3, CCR-5 (Homo sapiens, UniProt P51681); assay: CCR-5 whole blood CD11b upregulation; format: cell-based; conditions: MIP-1β 50 nM
T3 construct: human peripheral T cells was used as a source of CCR-5; endogenous in cells; host or cells: human peripheral T cells from donors pre-screened for high CCR-5 expression
T3 sequence (P51681 whole entry): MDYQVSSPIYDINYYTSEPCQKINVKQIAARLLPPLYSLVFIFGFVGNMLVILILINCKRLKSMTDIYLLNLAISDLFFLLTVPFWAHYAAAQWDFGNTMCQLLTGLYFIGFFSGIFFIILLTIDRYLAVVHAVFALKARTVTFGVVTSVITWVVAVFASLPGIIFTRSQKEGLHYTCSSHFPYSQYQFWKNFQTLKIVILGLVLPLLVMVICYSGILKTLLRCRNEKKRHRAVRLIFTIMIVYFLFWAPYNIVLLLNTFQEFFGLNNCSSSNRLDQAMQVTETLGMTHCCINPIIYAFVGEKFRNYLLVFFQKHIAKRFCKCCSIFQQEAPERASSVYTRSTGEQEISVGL
Method: Similar procedure to the CCR-2 whole blood CD11b upregulation procedure set forth above was adopted except that MIP-1β (50 nM) was used as the ligand.

[3] = system: monocyte/macrophage infiltration; assay: 48-hour thioglycollate (TG)-induced peritonitis model in hCCR-2 KI mouse; format: in vivo; conditions: for % inhibition of monocyte/macrophage infiltration: 48 h post TG
Method: The hCCR-2 KI mice (C57BL/6-SVJ129) were injected intraperitoneally with 1 ml of thioglycollate (TG) (Hardy Diagnostics). For each study, eight male mice per group were used. Example 1 was dosed orally 1 hour prior to TG injection. The vehicle used was 0.01 N HCl in water. Forty-eight hours post TG injection, peritoneal lavages were performed by injecting 5 ml PBS/10 mM EDTA/10% BSA into the peritoneal cavity.
as §1
For flow cytometric analysis, peritoneal exudate cells (1×10^6) were washed once with FACS buffer (PBS/0.5% BSA) and resuspended in FACS buffer. Cells were incubated with an Fc-blocking antibody (BD Pharmingen) on ice for 15 min followed by addition of the following antibodies (BD Pharmingen): PE conjugated anti-F4/80, FITC conjugated anti-Ly6C, and Alexa 647 conjugated anti-hCCR-2. After 45 min on ice, cells were fixed by BD CYTOFIX® for 15 min on ice, washed twice with FACS buffer, and resuspended in 200 μl FACS buffer. Cellular events (40,000) were acquired for each sample and data were analyzed using FloJo software (TreeStar). A FSC/SSC gate was set to include all monocytes (low SSC, higher FSC) while excluding granulocytes from the analysis. This gated population was then analyzed for Ly6C (FITC), F4/80 (PE) expression. Peritoneal monocytes/macrophage numbers were determined by multiplying total peritoneal cell counts obtained by the cell counter and the percentage of monocytes/macrophages identified by F4/80^+ cells from flow cytometry. Statistical significance of differences between means was analyzed using the paired two-tailed t test with significance set at p values below 0.05.
Example 1 was evaluated in the hCCR-2 KI mouse TG peritonitis model to determine its EC50 in inhibiting monocyte/macrophage infiltration. Mice were administered thioglycollate, and dosed orally with Example 1 at 10, 50, or 160 mg/kg BID. Forty eight hours post TG treatment, peritoneal lavage was obtained for cellular infiltrate analysis by flow cytometry.

hERG = biological target: T4, hERG (Homo sapiens, UniProt Q12809); assay: hERG patch clamp; format: cell-based; conditions: read-out: hERG patch clamp (% Inhib.)
T4 construct: expressed in transfected cells; host or cells: HEK293
T4 sequence (Q12809 whole entry): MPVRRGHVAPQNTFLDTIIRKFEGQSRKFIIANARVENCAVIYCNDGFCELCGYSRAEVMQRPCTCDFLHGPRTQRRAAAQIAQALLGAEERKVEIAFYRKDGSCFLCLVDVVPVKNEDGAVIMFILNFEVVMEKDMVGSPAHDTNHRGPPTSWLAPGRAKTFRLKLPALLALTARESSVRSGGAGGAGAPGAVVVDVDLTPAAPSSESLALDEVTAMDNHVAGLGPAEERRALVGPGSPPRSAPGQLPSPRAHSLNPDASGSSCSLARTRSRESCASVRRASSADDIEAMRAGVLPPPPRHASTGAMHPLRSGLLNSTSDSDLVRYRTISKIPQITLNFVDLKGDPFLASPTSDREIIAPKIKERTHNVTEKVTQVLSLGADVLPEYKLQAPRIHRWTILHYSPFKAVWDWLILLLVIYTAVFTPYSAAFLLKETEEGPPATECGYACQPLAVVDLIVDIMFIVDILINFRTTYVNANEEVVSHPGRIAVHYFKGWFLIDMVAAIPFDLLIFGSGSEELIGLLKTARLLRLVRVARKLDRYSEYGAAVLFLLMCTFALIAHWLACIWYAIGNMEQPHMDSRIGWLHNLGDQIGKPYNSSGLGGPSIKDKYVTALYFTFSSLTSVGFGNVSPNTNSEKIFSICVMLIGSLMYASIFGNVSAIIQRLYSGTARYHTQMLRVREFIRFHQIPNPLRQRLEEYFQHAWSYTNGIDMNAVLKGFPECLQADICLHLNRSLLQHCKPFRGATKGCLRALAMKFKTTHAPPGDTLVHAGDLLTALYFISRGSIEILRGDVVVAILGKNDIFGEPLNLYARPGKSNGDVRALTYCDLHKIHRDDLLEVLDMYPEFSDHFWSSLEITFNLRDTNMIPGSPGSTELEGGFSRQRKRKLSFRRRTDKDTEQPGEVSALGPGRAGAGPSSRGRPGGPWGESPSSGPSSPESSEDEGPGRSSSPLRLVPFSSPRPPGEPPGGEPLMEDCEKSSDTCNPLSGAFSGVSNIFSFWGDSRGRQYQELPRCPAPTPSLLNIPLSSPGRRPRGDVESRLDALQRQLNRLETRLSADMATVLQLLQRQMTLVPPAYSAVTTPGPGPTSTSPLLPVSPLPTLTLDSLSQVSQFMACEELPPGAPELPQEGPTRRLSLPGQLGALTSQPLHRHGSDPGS
Method: Whole-cell patch-clamp was used to directly measure hERG currents in HEK-293 cells stably expressing the cloned hERG potassium channel α subunit. […] Repetitive test pulses (0.05 Hz) were applied from a holding potential of −80 mV to +20 mV for 2 seconds and tail currents were elicited following the test pulses by stepping the voltage to −65 mV. The effects from the compound were calculated by measuring inhibition of peak tail current

SMILES: CC(=O)N[C@@H]1C[C@H](NC(C)(C)C)CC[C@@H]1N1CC[C@H](Nc2ncnc3cc(C(C)(C)C)nn23)C1=O [Example 1, N-((1R,2 S,5R)-5-(tert-Butylamino)-2-((S)-3-(7-tert-butylpyrazolo[1,5-a][1,3,5]triazin-4-ylamino)-2-oxopyrrolidin-1-yl)cyclohexyl)acetamide]
- inhibition at 10000 nM ([1]; 10,000 nM): 15 to 20%
- inhibition at 30000 nM ([1]; 30,000 nM): 13 to 16%
- concentration at 48 h ([2]; hCCR-2 KI, oral, 10 mg/kg): 1.9 nM
- concentration at 48 h ([2]; hCCR-2 KI, oral, 50 mg/kg): 16.6 nM
- concentration at 48 h ([2]; hCCR-2 KI, oral, 200 mg/kg): 136 nM
- concentration at 48 h ([2]; 160 mg/kg oral BID, 48 h, hCCR-2 KI mice): 62 nM
- IC50 (human CCR-2): 5.8 ± 2.3 nM
- activity against CCR-2 versus CCR-5 (Table 5) (CCR-2; comparison of CCR-2 and CCR-5 CD11b IC50): equipotent against CCR-2 and CCR-5
- IC50 (CCR-2; human whole blood, MCP-1 10 nM): 4.8 nM
- IC50 (CCR-5): 5.7 nM
- % inhibition of monocyte/macrophage infiltration ([3]; 10 mg/kg oral BID): 25%
- % inhibition of monocyte/macrophage infiltration ([3]; 50 mg/kg oral BID): 54%
- % inhibition of monocyte/macrophage infiltration ([3]; 160 mg/kg oral BID): 63%
- % inhibition of monocyte/macrophage infiltration ([3]; 200 mg/kg (different study), oral BID): 71%
- EC50 ([3]; Mus musculus, estimated from four separate studies, hCCR-2 KI mouse, read-out: average EC50 for inhibition of monocyte/macrophage infiltration): 4.9 nM
- maximal inhibition of monocyte/macrophage infiltration reached ([3]; four separate studies with multiple doses): ~70%
- inhibition at 10000 nM (hERG; pH 7.4, 10,000 nM): 1.2%
- inhibition at 30000 nM (hERG; pH 7.4, 30,000 nM): 9.2%
